target: T1, Brucella suis urease (ure-1 operon) (Brucella suis, UniProt Q8G2P8); assay: biochemical
T1 construct: gene ureC1
T1 sequence (Q8G2P8 whole entry, looked up): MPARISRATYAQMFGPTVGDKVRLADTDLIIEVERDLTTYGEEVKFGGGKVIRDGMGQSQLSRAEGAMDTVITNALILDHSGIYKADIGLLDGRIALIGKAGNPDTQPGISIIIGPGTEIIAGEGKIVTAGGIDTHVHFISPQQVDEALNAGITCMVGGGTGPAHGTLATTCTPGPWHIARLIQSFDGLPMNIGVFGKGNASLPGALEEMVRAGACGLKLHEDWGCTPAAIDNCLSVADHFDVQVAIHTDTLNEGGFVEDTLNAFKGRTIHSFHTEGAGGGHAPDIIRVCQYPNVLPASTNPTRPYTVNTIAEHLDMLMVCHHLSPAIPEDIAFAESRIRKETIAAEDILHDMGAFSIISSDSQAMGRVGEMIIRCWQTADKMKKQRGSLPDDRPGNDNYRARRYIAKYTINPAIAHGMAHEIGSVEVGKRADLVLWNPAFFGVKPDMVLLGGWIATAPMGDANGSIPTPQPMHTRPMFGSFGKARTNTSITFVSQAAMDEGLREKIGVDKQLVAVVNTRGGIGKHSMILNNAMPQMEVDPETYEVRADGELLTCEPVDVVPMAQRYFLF

**Q.** NC(N)=S [thiourea] was tested. Which Ki did it give?
**A.** 26.1 ± 2.3 mM

**Q.** For CC(=O)NO [acetohydroxamic acid], which Ki is on record?
**A.** 0.77 ± 0.06 mM

**Q.** With NC(=O)NO [hydroxyurea] as the compound, how does the Ki read?
**A.** 1.04 ± 0.31 mM

From PMC2492869 (BMC Microbiology, 2008)
